The record followed here is PMC8831520, “Small molecule SWELL1 complex induction improves glycemic control and nonalcoholic fatty liver disease in murine Type 2 diabetes” (Nature Communications, 2022).

Series [1] concerns SWELL1/LRRC8a-e mRNA in 3T3-F442A cells. Description: qRT-PCR of LRRC8 family mRNA. Type of series: cell-based, murine. Particulars: 10 µM, 96 h. As to the method:
RNA samples were isolated using the PureLink RNA kit (Life Technologies) as per the manufacturer’s instructions. Complementary DNA (cDNA) synthesis was carried out using an iScript Reverse Transcriptase kit (Bio-Rad). […] Each sample measurement was carried out in triplicate. GAPDH was used as the internal standard and the fold change was calculated relative to GAPDH was normalized to vehicle group. The following qRT-PCR primers (5′ to 3′) were used: GAPDH forward—[…] and reverse— […]; SWELL1 forward—[…] and reverse— […]; LRRC8b forward—[…] and reverse— […]; LRRC8c forward—[…] and reverse—[…]; LRRC8d forward—[…] and reverse— […]; LRRC8e forward—[…] and reverse— […], respectively.
For orientation: In qPCR the cycle at which signal appears reflects the starting amount.

The nature of another series: In vivo pharmacokinetics. Further details: species or system mouse. Particulars: for T-half / AUC(0-inf) / Cmax / Oral Bioavailability (AUCp.o./AUCi.v.): 5 mg/kg; for T-half / AUC(0-inf) / Cmax / Oral Bioavailability (AUCp.o./AUCi.v.) / time plasma concentrations exceed those sufficient for induction of SWELL1 signaling activity (>~100 nM): mice; for T-half / AUC(0-inf) / Cmax: plasma; for AUC(0-inf) / Cmax: male, C57/BL6, mouse; for time plasma concentrations exceed those sufficient for induction of SWELL1 signaling activity (>~100 nM): 5 mg/kg i.p. or p.o. As to the method:
Male C57/BL6 mice were used in the study and assessed for a single dose (5 mg/kg) administration. The compounds were prepared in Cremaphor for i.p. and p.o dose routes and in 5% ethanol, 10% Tween-20, and water mix for i.v. route at a final concentration of 1 mg/mL. […] The blood samples were collected in tubes with K2 EDTA anticoagulant and further processed to collect plasma by centrifugation at 1383×g at 5 °C for 10 min. Samples were further processed in LC/MS to determine the concentration of the compounds. Non-compartmental analysis was performed to obtain the PK parameters using the PKPlus software package (Simulation Plus). The area under the plasma concentration-time curve (AUCinf) was calculated from time 0 to infinity where the Cmax is the maximal concentration achieved in plasma and t1/2 is the terminal elimination half-life. Oral bioavailability was calculated as AUCOral/AUCIV*100.

The next series relates to T2D and non-T2D mice. Description: Metabolic phenotyping: fasting glucose, GTT, ITT. How it is done: All compounds were dissolved in Kolliphor® EL (Sigma, #C5135).
Mice were fasted for 6 h prior to glucose tolerance tests (GTT). Baseline glucose levels at 0 min timepoint (fasting glucose, FG) were measured from a blood sample collected from tail snipping using glucometer (Bayer Healthcare LLC). Either 1 or 0.75 g D-Glucose/kg body weight were injected (i.p.) for lean or HFD mice, respectively and glucose levels were measured at 5 or 7, 15, 30, 60, 90, and 120 min timepoints after injection. For insulin tolerance tests (ITTs), the mice were fasted for 4 h. Similar to GTTs, the baseline blood glucose levels were measured at 0 min timepoint and 15, 30, 60, 90, and 120 min timepoints post-injection (i.p.) of insulin (HumulinR, 1 U/kg bodyweight for lean mice or 1.25 U/kg body weight for HFD mice). […] The collected plasma was then measured for insulin content by using Ultra-Sensitive Mouse Insulin ELISA Kit (Crystal Chem, #90080). All mouse studies were performed in a blinded fashion.

Another series deals with HFD-T2D mice. Put plainly: NAFLD in HFD-fed mice: liver triglycerides, histology, NAS. It counts as in vivo, mouse. As to the method: Gross liver weights were measured and identical sections from the right medial lobe of the liver were dissected for further examinations. Total triglyceride content was determined by homogenization of 10–50 mg of tissue in 1.5 ml of chloroform:methanol (2:1 v/v) followed by centrifugation at 16,260×g for 10 min at 4 °C. A 20 µl of the supernatant was evaporated in a 1.5 ml microcentrifuge tube for 30 min. Triglyceride content was determined by adding 100 µl of Infinity Triglyceride Reagent (Fisher Scientific) to the dried sample followed by 30 min incubation at RT. The samples were then transferred to a 96-well plate along with standards (0–2000 mg/dl) and absorbance was measured at 540 nm and the final concentration was determined by normalizing to tissue weight. For histological examination, liver sections were fixed in 10% zinc formalin and paraffin-embedded for sectioning. Hematoxylin and eosin (H&E) stained sections were then assessed for steatosis grade, lobular inflammation, and hepatocyte ballooning for nonalcoholic fatty liver disease (NAFLD) scoring[46],[95],[96].

The mark [2] stands for this setting: 12–18 weeks HFD mice, 5 mg/kg/day × 4 days, pre- vs post-treatment.

Structures are written as SMILES.

A word on the AUC(0-inf): it is total exposure, with the tail of the curve extrapolated. Broadly, the Cmax is the maximum level reached in the sampled fluid or tissue. `CCCCC1(C2CCCC2)Cc2cc(OCCCC(=O)O)c(Cl)c(Cl)c2C1=O` (stereo not drawn) [SN-401, 4-((2-butyl-6,7-dichloro-2-cyclopentyl-1-oxo-2,3-dihydro-1H-inden-5-yl)oxy)butanoic acid]: the “SWELL1 and LRRC8b-e mRNA” value in series [1] is “not associated with increases in SWELL1 mRNA”. Moreover, the T-half turned out to be 2.056 h in “In vivo pharmacokinetics” (Intraperitoneal), 1.428 h in “In vivo pharmacokinetics” (Intravenous) and 2.585 h in the series “In vivo pharmacokinetics” (Oral). Moreover, the “PK in adipose tissue” value in “In vivo pharmacokinetics” (iWAT, 5 mg/kg i.p. and p.o.) is “closely tracks serum concentrations”. Also, the area under the curve AUC(0-inf) came to 23000 ng·h/mL in the series “In vivo pharmacokinetics” (ip, Intraperitoneal); 5960 ng·h/mL in “In vivo pharmacokinetics” (Intravenous); 4680 ng·h/mL in “In vivo pharmacokinetics” (Oral). The peak concentration (Cmax) in “In vivo pharmacokinetics” (ip, Intraperitoneal) worked out at 4370 ng/mL; in “In vivo pharmacokinetics” (Intravenous), 5440 ng/mL; in “In vivo pharmacokinetics” (Oral), 781 ng/mL. Moreover, the “Oral Bioavailability (AUCp.o./AUCi.v.)” value in the series “In vivo pharmacokinetics” is reported as 79%. Also, the “time plasma concentrations exceed those sufficient for induction of SWELL1 signaling activity (>~100 nM)” value in the series “In vivo pharmacokinetics” lay within 8 to 12 h. Moreover, the “fasting blood glucose (FG), glucose tolerance (GTT), and insulin tolerance (ITT)” value in the series with T2D and non-T2D mice (HFD-fed and KKAy T2D mice, 5 mg/kg i.p. 4–10 days) is “improved”. The “hypoglycemia in control strain” value with T2D and non-T2D mice (KKAa parental strain, 5 mg/kg × 4–10 days) was “does not cause hypoglycemia”. In addition, the “FG, GTT, and ITT compared to vehicle” value in the series with T2D and non-T2D mice (lean, non-T2D, glucose-tolerant mice) is given as “similar”; with T2D and non-T2D mice (same mice after 16 weeks of HFD-feeding, 4 days treatment) it was “marked improvements”. The “reduction in body weight compared to vehicle” value with HFD-T2D mice (16 weeks HFD then intermittent dosing over 5 weeks) was 14%. In addition, the “improvement of NAFLD-activity score (NAS)” value with HFD-T2D mice (16 weeks HFD then intermittent dosing over 5 weeks, vs vehicle) is above 2 points. The “hepatic steatosis and hepatocyte damage” value with HFD-T2D mice (histologic evaluation, vs vehicle) is on record as “significant reductions”. Further, the hepatic triglyceride concentrations result with HFD-T2D mice (vs vehicle) is reported as “lower”.
Regarding `CCCCC1(C2CCCC2)Cc2cc(OCCCCCC(=O)O)c(Cl)c(Cl)c2C1=O` (stereo not drawn) [SN-406, 6-((2-butyl-6,7-dichloro-2-cyclopentyl-1-oxo-2,3-dihydro-1H-inden-5-yl)oxy)hexanoic acid], the T-half in the series “In vivo pharmacokinetics” (Intraperitoneal) is recorded as 1.809 h; in “In vivo pharmacokinetics” (Intravenous), 0.7689 h; in “In vivo pharmacokinetics” (Oral) it was 2.058 h. In addition, the AUC(0-inf) came out at 18200 ng·h/mL in “In vivo pharmacokinetics” (ip, Intraperitoneal); 6530 ng·h/mL in the series “In vivo pharmacokinetics” (Intravenous); 3130 ng·h/mL in “In vivo pharmacokinetics” (Oral). Moreover, the peak concentration (Cmax) in the series “In vivo pharmacokinetics” (ip, Intraperitoneal) came out at 4300 ng/mL; in “In vivo pharmacokinetics” (Intravenous), 15100 ng/mL; in “In vivo pharmacokinetics” (Oral), 661 ng/mL. Besides, in “In vivo pharmacokinetics”, the “Oral Bioavailability (AUCp.o./AUCi.v.)” value came to 48%. Besides, in the series “In vivo pharmacokinetics”, the “time plasma concentrations exceed those sufficient for induction of SWELL1 signaling activity (>~100 nM)” value lay within 8 to 12 h. Moreover, the fasting blood glucose entry in the series on T2D and non-T2D mice (setting [2]) is given as “markedly reduced”. For the same compound, the glucose tolerance result in the series with T2D and non-T2D mice (setting [2]) is given as “improved”; with T2D and non-T2D mice (HFD-T2D mice, separate experiment, compared to Inactive 1) it was “significantly improved”. Besides, the “insulin sensitivity based on HOMA-IR” value in the series with T2D and non-T2D mice (HFD-T2D mice, compared to Inactive 1) is listed as “trend toward improved insulin sensitivity”.
